Experiment [1] addresses T1, Menin (Homo sapiens, UniProt O00255).
T1 sequence (O00255 whole entry): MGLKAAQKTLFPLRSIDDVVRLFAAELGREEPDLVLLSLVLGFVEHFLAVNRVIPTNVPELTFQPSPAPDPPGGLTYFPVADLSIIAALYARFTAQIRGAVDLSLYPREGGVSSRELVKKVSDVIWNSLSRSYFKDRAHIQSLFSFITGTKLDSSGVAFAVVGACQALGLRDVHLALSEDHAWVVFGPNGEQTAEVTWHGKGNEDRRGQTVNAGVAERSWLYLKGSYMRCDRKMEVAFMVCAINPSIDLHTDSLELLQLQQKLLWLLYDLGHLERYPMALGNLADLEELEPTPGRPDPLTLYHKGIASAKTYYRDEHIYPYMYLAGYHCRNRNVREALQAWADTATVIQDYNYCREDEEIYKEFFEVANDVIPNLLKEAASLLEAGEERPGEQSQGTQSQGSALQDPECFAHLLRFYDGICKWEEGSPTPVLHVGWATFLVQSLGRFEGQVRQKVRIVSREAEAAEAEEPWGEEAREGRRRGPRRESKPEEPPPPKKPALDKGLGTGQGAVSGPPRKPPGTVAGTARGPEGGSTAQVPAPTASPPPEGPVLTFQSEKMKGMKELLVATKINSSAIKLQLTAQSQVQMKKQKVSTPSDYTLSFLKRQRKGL
The experiment can be described thus: Displacement of FITC-MBM1 from full length human menin measured after 2 hrs by fluorescence polarization assay.

In experiment [2] the target is T1, Menin. In words: Binding affinity to menin (unknown origin) by isothermal titration calorimetry.
Experiment [3] addresses T1, Menin. The experiment can be described thus: Displacement of FITC-MBM1 from full length human menin measured after 1 hr by fluorescence polarization assay.
In experiment [4] the target is Histone-lysine N-methyltransferase 2A (Homo sapiens, UniProt Q03164). The experiment can be described thus: Inhibition of MLL1 binding to N-terminal His-tagged […] 23 deletion mutant (24 to 334 residues) (unknown origin) expressed in Escherichia coli Rosetta 2 (DE3) pLysS cells by fluorescence polarization assay.
Experiment [5] concerns the target T1, Menin.
Description: Displacement of FITC-MBM1 from menin (unknown origin) measured after 1 hr by fluorescence polarization assay

Structures are written as SMILES. Some results are limits rather than exact numbers.

Histone-lysine N-methyltransferase 2A, sequence (Q03164 1-2718 limits assumed, stated change not applied): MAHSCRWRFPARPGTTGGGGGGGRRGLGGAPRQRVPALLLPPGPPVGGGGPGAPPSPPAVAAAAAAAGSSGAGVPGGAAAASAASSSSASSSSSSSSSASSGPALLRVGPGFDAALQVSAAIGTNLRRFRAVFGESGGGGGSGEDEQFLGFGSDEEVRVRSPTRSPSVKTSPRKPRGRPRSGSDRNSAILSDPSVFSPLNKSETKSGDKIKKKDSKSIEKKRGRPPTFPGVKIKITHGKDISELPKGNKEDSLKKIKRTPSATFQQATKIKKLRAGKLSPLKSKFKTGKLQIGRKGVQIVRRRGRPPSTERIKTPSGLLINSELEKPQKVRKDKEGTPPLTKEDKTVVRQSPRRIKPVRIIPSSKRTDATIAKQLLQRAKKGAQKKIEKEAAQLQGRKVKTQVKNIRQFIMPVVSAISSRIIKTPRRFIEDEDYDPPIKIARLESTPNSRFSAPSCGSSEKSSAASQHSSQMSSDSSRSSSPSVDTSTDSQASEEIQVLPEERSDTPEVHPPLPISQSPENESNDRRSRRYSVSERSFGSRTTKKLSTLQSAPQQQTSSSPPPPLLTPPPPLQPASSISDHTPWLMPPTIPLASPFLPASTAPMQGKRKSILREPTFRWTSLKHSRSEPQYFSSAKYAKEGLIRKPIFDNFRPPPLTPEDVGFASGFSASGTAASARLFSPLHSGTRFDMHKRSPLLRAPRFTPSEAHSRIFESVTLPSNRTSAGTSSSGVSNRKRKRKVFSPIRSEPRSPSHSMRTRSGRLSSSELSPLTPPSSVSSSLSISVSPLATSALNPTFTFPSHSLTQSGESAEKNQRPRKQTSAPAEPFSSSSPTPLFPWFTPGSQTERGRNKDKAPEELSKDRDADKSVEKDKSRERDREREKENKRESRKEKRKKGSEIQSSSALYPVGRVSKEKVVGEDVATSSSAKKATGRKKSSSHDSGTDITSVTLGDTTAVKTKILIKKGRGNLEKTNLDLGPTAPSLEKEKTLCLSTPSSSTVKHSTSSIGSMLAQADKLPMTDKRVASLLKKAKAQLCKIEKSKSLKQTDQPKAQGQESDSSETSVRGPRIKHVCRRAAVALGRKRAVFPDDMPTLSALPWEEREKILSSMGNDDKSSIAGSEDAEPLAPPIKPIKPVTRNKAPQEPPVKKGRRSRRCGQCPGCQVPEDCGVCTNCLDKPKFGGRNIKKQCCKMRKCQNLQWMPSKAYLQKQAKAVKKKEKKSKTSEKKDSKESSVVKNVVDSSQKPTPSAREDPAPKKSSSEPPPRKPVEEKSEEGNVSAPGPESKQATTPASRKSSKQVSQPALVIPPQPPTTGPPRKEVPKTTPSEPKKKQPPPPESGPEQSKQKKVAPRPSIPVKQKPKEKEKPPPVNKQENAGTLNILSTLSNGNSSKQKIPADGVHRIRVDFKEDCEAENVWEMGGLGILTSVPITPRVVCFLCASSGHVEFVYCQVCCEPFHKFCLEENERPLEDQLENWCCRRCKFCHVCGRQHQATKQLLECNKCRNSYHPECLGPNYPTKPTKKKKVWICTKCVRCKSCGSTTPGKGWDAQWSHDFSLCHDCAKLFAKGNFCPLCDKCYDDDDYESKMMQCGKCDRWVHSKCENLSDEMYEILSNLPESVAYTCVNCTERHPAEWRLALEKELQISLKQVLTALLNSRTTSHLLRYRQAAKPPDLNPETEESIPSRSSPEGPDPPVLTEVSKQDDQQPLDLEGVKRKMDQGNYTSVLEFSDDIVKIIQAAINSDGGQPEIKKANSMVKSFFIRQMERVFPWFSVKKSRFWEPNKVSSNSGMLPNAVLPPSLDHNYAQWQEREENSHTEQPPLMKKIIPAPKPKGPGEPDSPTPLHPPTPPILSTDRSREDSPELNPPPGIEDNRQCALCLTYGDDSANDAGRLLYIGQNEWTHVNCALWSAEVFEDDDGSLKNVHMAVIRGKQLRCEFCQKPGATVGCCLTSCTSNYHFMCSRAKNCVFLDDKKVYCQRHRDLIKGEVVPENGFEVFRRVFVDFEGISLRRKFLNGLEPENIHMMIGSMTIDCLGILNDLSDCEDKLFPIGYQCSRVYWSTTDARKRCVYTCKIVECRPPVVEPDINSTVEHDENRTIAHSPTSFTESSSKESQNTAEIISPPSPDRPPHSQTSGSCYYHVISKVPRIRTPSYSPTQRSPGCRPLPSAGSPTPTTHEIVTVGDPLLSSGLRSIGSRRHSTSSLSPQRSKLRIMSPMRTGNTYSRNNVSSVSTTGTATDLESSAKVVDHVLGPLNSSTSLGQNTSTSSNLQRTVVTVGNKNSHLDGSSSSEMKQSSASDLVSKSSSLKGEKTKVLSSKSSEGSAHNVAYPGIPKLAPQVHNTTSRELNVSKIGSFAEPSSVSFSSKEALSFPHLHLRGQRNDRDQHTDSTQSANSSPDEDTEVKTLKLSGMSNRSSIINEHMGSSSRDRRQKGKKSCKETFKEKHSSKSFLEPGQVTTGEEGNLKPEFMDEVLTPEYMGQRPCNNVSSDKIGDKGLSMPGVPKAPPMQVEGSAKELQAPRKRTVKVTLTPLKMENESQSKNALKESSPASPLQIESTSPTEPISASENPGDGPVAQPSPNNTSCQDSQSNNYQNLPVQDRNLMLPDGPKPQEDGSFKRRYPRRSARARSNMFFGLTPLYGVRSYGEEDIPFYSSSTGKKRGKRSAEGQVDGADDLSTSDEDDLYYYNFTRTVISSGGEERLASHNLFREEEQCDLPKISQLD
Histone-lysine N-methyltransferase 2A, sequence (Q03164 2719-3969 limits assumed, stated change not applied): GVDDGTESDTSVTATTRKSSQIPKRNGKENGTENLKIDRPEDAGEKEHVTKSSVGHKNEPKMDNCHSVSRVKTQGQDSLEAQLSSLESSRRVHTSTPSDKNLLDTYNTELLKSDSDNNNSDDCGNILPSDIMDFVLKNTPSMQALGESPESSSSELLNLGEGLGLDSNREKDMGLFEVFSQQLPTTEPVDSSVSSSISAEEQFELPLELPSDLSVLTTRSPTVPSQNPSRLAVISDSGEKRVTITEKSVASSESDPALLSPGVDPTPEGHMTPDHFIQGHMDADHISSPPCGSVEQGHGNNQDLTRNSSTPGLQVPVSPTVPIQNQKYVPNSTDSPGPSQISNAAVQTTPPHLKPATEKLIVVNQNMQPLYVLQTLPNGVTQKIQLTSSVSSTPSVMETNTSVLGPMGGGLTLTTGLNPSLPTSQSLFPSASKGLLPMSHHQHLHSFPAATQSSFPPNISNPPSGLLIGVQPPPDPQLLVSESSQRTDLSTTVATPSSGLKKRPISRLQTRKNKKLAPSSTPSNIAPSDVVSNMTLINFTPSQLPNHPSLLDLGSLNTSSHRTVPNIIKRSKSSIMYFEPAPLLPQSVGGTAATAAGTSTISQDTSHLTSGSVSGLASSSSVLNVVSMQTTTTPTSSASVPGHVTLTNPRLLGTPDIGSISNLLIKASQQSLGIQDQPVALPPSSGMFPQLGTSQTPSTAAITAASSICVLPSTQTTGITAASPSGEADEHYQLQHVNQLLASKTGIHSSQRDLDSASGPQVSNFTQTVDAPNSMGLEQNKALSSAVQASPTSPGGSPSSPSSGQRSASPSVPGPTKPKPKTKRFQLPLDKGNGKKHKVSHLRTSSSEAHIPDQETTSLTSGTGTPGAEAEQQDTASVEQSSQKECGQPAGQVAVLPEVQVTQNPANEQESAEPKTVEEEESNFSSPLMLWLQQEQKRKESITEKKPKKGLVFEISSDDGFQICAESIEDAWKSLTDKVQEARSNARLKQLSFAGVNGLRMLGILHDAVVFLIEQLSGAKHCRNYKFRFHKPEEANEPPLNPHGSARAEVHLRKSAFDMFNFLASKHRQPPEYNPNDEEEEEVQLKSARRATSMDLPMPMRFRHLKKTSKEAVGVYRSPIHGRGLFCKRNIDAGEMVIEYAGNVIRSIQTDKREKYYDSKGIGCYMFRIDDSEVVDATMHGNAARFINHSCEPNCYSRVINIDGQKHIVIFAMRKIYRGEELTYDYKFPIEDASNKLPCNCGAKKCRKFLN

Take `NCC(CCN1CC=C(c2ccc(Cl)cc2)CC1)(c1ccccc1)C1CCCC1` (stereo not drawn): on Menin [1], the IC50 is 830 nM and the Ki stood at 80 nM.
The compound `Cc1c(CN2CCC(Nc3ncnc4sc(CC(F)(F)F)cc34)CC2)ccc2c1cc(C#N)n2Cc1cn[nH]c1` showed a Kd at Menin [2] of 9.3 nM. On Menin [3], the IC50 came to 14.7 nM.
On Menin [1], `CN(C)C(=O)C(CCN1CCC(O)(c2ccc(Cl)cc2)CC1)(c1ccccc1)c1ccccc1` [LOPERAMIDE] showed an IC50 of 69000 nM.
In experiment [4], `CCC(CC)(NC(=O)C(C)C)C(=O)N[C@@H](CCCNC(=N)N)C(=O)NC1(C(=O)NC(c2ccc(Cl)cc2)c2ccc(Cl)cc2)CCCC1` yielded an IC50 of 4.5 nM and a Ki of less than 1 nM.
Take `O=c1cccc2n1[C@@H]1C[C@H](C2)CN(CC(O)CCCc2ccccc2)C1` (stereo partly drawn): the IC50 at Menin [5] is 1 nM.

(Values after ChEMBL document CHEMBL4184186, “Targeting protein-protein interaction between MLL1 and reciprocal proteins for leukemia therapy” (Bioorg Med Chem, 2018).)
